Assay results published in PubChem BioAssay (NCI).
Where “and” joins values, the source holds several entries; their conditions need not be identical. Identical values can stand only once.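 Protocol summary: plate cells (96-well), add compound at 5 concentrations, incubate 48 h, interpolate endpoints linearly. At the GI50, growth is halved. TGI is the concentration that stops growth completely.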

Columns and labels:
Assay in all cases: inhibition of tumour cell growth, NCI panel, 48 h
PC-3 prostate = test system: PC-3 prostate
CCRF-CEM leukemia = test system: CCRF-CEM leukemia
MDA-MB-435 = test system: MDA-MB-435
ACHN renal = test system: ACHN renal
SK-MEL-2 melanoma = test system: SK-MEL-2 melanoma
KM12 colon = test system: KM12 colon
SF-268 CNS = test system: SF-268 CNS
SR leukemia = test system: SR leukemia
SN12C renal = test system: SN12C renal
MCF7 breast = test system: MCF7 breast

| Compound | GI50 (PC-3 prostate) | TGI (PC-3 prostate) | GI50 (CCRF-CEM leukemia) | TGI (CCRF-CEM leukemia) | GI50 (MDA-MB-435) | TGI (MDA-MB-435) | GI50 (ACHN renal) | TGI (ACHN renal) | GI50 (SK-MEL-2 melanoma) | TGI (SK-MEL-2 melanoma) | GI50 (KM12 colon) | TGI (KM12 colon) | GI50 (SF-268 CNS) | TGI (SF-268 CNS) | GI50 (SR leukemia) | TGI (SR leukemia) | GI50 (SN12C renal) | TGI (SN12C renal) | GI50 (MCF7 breast) | TGI (MCF7 breast) |
| --- | --- | --- | --- | --- | --- | --- | --- | --- | --- | --- | --- | --- | --- | --- | --- | --- | --- | --- | --- | --- |
| CCOC(=O)/C=C/c1ccc([N+](=O)[O-])o1 | 11.8 µM | 39.9 µM | 0.518 µM | 10.2 µM | 2.1 µM | 4.67 µM | 1.75 µM | 3.8 µM | 11.3 µM | 36.8 µM | 12.6 µM | 27.6 µM | 5.38 µM | 40.5 µM | 1.64 µM | 26.1 µM | 3.03 µM | 10.8 µM | 2.74 µM | 17.2 µM |
| COc1ccc2c(c1)[n+](=O)c(/C=C/C(=O)c1cc(OC)c(OC)c(OC)c1)c(C)n2[O-] | 15.7 µM | > 100 µM | 1.87 µM | 8.08 µM | 6.65 µM | > 100 µM | 5.66 µM | 23.6 µM | 11.5 µM | 28.3 µM | 14.4 µM | 60.5 µM | 6.11 µM | 45.6 µM | 0.644 µM | 2.41 µM | 6.33 µM | 48.5 µM | 3.14 µM | > 100 µM |
| CN(CCOc1ccc(NS(C)(=O)=O)cc1)CCc1ccc(NS(C)(=O)=O)cc1 | > 100 µM | > 100 µM | > 100 µM | > 100 µM | > 100 µM | > 100 µM | > 100 µM | > 100 µM | > 100 µM | > 100 µM | > 100 µM | > 100 µM | > 100 µM | > 100 µM | > 100 µM | > 100 µM | > 100 µM | > 100 µM | > 100 µM | > 100 µM |
| O=C1C=C(NCCc2ccccc2)c2ccccc2C1=O | – | 26.2 µM | – | 67.9 µM | – | 2.34 µM | – | 12.2 µM | – | 5.18 µM | – | 8.72 µM | – | 23.1 µM | – | 43.3 µM | – | 3.37 µM | – | 3.34 µM |
| COc1ccc2c(CN3CCCC[C@H]3O)cc3cc4c(cc3c2c1)OCO4 | 0.467 µM | 3.53 µM | 0.528 µM | 4.07 µM | 0.422 µM | 1.62 µM | 0.222 µM | 2.36 µM | 0.291 µM | 0.889 µM | 0.48 µM | 5.22 µM | 0.417 µM | 5.74 µM | 0.195 µM | 0.854 µM | 0.326 µM | 4.06 µM | 0.314 µM | 3.22 µM |
| OC[C@H]1N[C@H](CO)[C@@H](O)[C@H]1O | – | > 100 µM | – | > 100 µM | – | > 100 µM | – | > 100 µM | – | > 100 µM | – | > 100 µM | – | > 100 µM | – | > 100 µM | – | > 100 µM | – | > 100 µM |
| COc1ccc(C(=O)c2ccccc2)c(O)c1 | > 100 µM | > 100 µM | > 100 µM | > 100 µM | 66.6 µM | > 100 µM | > 100 µM | > 100 µM | > 100 µM | > 100 µM | 63 µM | > 100 µM | 55.2 µM | > 100 µM | 45.7 µM | > 100 µM | 75.6 µM | > 100 µM | > 100 µM | > 100 µM |
| Cc1cc(C)c(-c2c(O)c(Br)c(-c3c(C)cc(C)c(Br)c3C)c(O)c2Br)c(C)c1Br | 1.88 µM | 8.76 µM | 4.06 µM | 20.2 µM | 2.35 µM | 8.55 µM | 3.14 µM | 13 µM | 2 µM | 6.2 µM | 3.47 µM | 13.1 µM | 3.7 µM | 16.4 µM | 2.32 µM | 8.29 µM | 2.69 µM | 15 µM | 2.38 µM | 11.8 µM |
| CN1C2C=CC(=O)C1C(C#N)C2 (configuration not stated) | – | > 100 µM | – | 82.7 µM and > 100 µM | – | > 100 µM | – | > 100 µM | 12.5 µM and 88.3 µM | 32.1 µM and > 100 µM | – | > 100 µM | – | > 100 µM | 22.7 µM and 61.6 µM | 81 µM and > 100 µM | – | > 100 µM | – | > 100 µM |
| CC(C)C(Br)C(=O)NCC(=O)O (configuration not stated) | – | > 100 µM | – | > 100 µM | – | > 100 µM | – | > 100 µM | – | > 100 µM | – | > 100 µM | – | > 100 µM | – | > 100 µM | – | > 100 µM | – | > 100 µM |
| S=C(Nc1ccc(-c2nc3ccccc3s2)cc1)Nc1ccc(-c2nc3ccccc3s2)cc1 | 26.8 µM | > 100 µM | 18.4 µM | 70.6 µM | 24.8 µM | 73 µM | 17.1 µM | 41 µM | 22.9 µM | 45 µM | 20.1 µM | > 100 µM | 23.6 µM | 94.8 µM | 21 µM | 49.5 µM | 16.7 µM | 44.5 µM | 25 µM | 59 µM |
